Non-standard residues stand in square brackets, D forms with d. Residues, ends and D or L forms follow the SMILES beside them. *: point of attachment. Cha = N[C@@H](CC1CCCCC1)C(=O)O; dCha = N[C@H](CC1CCCCC1)C(=O)O; dChg = N[C@@H](C(=O)O)C1CCCCC1; pNA = O=[N+]([O-])c1ccc(N*)cc1; Chg = N[C@H](C(=O)O)C1CCCCC1; dNva = CCC[C@@H](N)C(=O)O; Nle = CCCC[C@H](N)C(=O)O; Nva = CCC[C@H](N)C(=O)O
Legend:
Format in all cases: biochemical
Humanthrombin = molecular target: T1, Humanthrombin (Homo sapiens, UniProt P00734); experiment: Cleavage of chromogenic substrate by human NIH thrombin; settings: 1 NIH-Einheit human thrombin, per min; Substratkonzentration 2 x 10^-4 molar
T1 construct: Humanplasmin und hu-manem NIH-Thrombin
How it was run: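 Thrombin hydrolysis of chromogenic p-nitroanilide substrate read spectrophotometrically at 405 nm; fluorogenic naphthylamine, methylcoumarylamine or di(methoxycarbonyl)phenylamine substrates read continuously by fluorescence emission at 400-470 nm. Activity taken as product formed per unit time; 1 µmol product/min defined as 1 enzyme unit for a given substrate.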

Humanplasmin = molecular target: T2, Humanplasmin (Homo sapiens, UniProt P00747); experiment: Cleavage of chromogenic substrate by human plasmin; settings: 1 CU-Einheit human plasmin, per min; Substratkonzentration 2 x 10^-4 molar
T2 construct: da bei der Aktivierung aus 1 Molekül Plasminogen 1 Molekül Plasmin entsteht

Urinkallikrein = molecular target: T3, Urinkallikrein (Homo sapiens, UniProt P06870); experiment: Cleavage of chromogenic substrate by urinary kallikrein in human urine; settings: 1 ml human urine (pooled morning urine of healthy persons), per min; Substratkonzentration 2 x 10^-4 molar
T3 construct: 1 ml Urin und 1 ml TRIS-Imidazol-Puffer mit pH 7,9; from tissue; host or cells: human urine

[1] = molecular target: T4, Submandibularis-Kallikrein (Homo sapiens, UniProt P06870); experiment: Cleavage of chromogenic substrate by submandibular (glandular) kallikrein in human sputum; settings: 1 ml human sputum, per min; Substratkonzentration 2 x 10^-4 molar
T4 construct: Man mischt 0,5 ml Sputum mit 2 ml TRIS-Imidazol-Puffer; from tissue; host or cells: human sputum
How it was run: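 Sputum mixed with TRIS-imidazole buffer (ionic strength 1.0), preincubated 5 min at 37°C and centrifuged; supernatant incubated with aqueous substrate solution (2 x 10^-3 M, stock). p-Nitroaniline release followed continuously at 405 nm for 5-10 min; activity expressed as mU per ml sputum from ΔOD/min.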

T3 sequence (P06870 25-262): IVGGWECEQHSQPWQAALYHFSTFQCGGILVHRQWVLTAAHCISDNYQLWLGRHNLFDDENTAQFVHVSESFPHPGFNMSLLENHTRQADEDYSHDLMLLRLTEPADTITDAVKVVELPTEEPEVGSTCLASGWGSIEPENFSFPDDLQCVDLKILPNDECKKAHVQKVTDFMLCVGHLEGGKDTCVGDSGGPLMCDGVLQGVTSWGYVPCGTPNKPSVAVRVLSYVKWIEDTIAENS
T4 sequence (P06870 25-262): as above
T2 sequence (P00747 581-810 limits assumed): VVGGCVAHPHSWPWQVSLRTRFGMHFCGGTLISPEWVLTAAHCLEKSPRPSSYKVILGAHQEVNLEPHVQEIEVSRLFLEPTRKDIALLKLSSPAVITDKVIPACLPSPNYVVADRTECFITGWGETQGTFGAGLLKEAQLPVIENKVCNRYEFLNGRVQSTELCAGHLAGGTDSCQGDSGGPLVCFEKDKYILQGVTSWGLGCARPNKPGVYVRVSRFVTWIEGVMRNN
T2 sequence (P00747 97-580 partner limits assumed): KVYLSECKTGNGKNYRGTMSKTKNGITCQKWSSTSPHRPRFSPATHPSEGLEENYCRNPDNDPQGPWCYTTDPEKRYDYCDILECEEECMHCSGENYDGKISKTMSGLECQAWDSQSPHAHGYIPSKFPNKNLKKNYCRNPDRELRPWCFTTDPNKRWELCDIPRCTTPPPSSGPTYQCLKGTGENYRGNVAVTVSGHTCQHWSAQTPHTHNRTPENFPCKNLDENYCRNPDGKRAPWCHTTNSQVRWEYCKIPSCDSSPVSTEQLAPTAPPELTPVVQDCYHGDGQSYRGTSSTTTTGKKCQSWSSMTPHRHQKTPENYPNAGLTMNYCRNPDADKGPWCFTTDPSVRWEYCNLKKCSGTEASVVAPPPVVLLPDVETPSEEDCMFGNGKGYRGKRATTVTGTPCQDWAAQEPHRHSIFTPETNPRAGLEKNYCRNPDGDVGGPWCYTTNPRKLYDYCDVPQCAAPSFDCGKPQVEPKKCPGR

Row | Compound | Menge des durch 1 NIH-Einheit Thrombin pro Min. freigesetzten Spaltproduktes R-NH2 in Nanomol (Humanthrombin) (Humanthrombin) | Menge des durch 1 CU-Einheit Humanplasmin pro Min. freigesetzten Spaltproduktes R-NH2 in Nanomol (Humanplasmin) (Humanplasmin) [Nanomol] | Menge des durch 1 ml Humanurin pro Min. freigesetzten Spaltproduktes R-NH2 in Nanomol (Urinkallikrein) (Urinkallikrein) | Menge des durch 1 ml Humansputum pro Min. freigesetzten Spaltproduktes R-NH2 in Nanomol (Submandibularis-Kallikrein) [1]
1 | N=C(N)NCCC[C@H](NC(=O)[C@@H](NC(=O)[C@H](N)CC1CCC(O)CC1)c1ccccc1)C(=O)Nc1ccc([N+](=O)[O-])cc1 (stereo partly drawn) [Beispiel 57, 2HBr.H-D-CHT-Ph'Gly-Arg-pNA] | 112,1 Nanomol | 591 | 0,45 Nanomol | 31,1 Nanomol
2 | CCC[C@@H](N)C(=O)N[C@@H](CC1CCCCC1)C(=O)N[C@@H](CCCCN)C(=O)Nc1ccc([N+](=O)[O-])cc1 [Beispiel 71, 2HBr.H-D-Nval-CHA-Lys-pNA] (H-[dNva]-[Cha]-Lys-pNA) | 6,9 Nanomol | 655 | 1,87 Nanomol | 18,04 Nanomol
3 | N=C(N)NCCC[C@H](NC(=O)[C@H](CC1CCCCC1)NC(=O)[C@H]1CCCN1)C(=O)Nc1ccc([N+](=O)[O-])cc1 [Beispiel 22, 2HBr.H-D-Pro-CHA-Arg-pNA] (H-[dP]-[Cha]-Arg-pNA) | 0,75 Nanomol | 250 | 0,63 Nanomol | 11,7 Nanomol
4 | CC(C)C[C@H](NC(=O)[C@H](N)CC1CCCCC1)C(=O)N[C@@H](CCCNC(=N)N)C(=O)Nc1ccc([N+](=O)[O-])cc1 [Beispiel 52, 2HBr.H-D-CHA-Leu-Arg-pNA] (H-[dCha]-Leu-Arg-pNA) | 57,6 Nanomol | 555 | 0,64 Nanomol | 8,8 Nanomol
5 | CC(C)[C@@H](N)C(=O)N[C@@H](CC1CCCCC1)C(=O)N[C@@H](CCCCN)C(=O)Nc1ccc([N+](=O)[O-])cc1 [Beispiel 14, 2HBr.H-D-Val-CHA-Lys-pNA] (H-[dV]-[Cha]-Lys-pNA) | 0,35 Nanomol | 505 | 1,02 Nanomol | 6,7 Nanomol
6 | N=C(N)NCCC[C@H](NC(=O)[C@@H]1CCCN1C(=O)[C@H](N)CC1CCCCC1)C(=O)Nc1ccc([N+](=O)[O-])cc1 [Beispiel 19, 2HBr.H-D-CHA-Pro-Arg-pNA] (H-[dCha]-Pro-Arg-pNA) | 54,4 Nanomol | 1200 | 1,40 Nanomol | 8,1 Nanomol
7 | N=C(N)NCCC[C@H](NC(=O)[C@@H](NC(=O)[C@H](N)C1CCCCC1)C1CCCCC1)C(=O)Nc1ccc([N+](=O)[O-])cc1 [Beispiel 59, 2HBr.H-D-CHG-CHG-Arg-pNA] (H-[dChg]-[Chg]-Arg-pNA) | 7,5 Nanomol | 101 | 0,33 Nanomol | 5,9 Nanomol
8 | N=C(N)NCCC[C@H](NC(=O)[C@@H]1CCCCN1C(=O)[C@H](N)CC1CCC(O)CC1)C(=O)Nc1ccc([N+](=O)[O-])cc1 (stereo partly drawn) [Beispiel 28, 2HBr.H-D-CHT-Pip-Arg-pNA] | 80,4 Nanomol | 122 | 0 Nanomol | 9,9 Nanomol
9 | CCC[C@H](NC(=O)[C@H](N)CC1CCCCC1)C(=O)N[C@@H](CCCNC(=N)N)C(=O)Nc1ccc([N+](=O)[O-])cc1 [Beispiel 69, 2HBr.H-D-CHA-Nval-Arg-pNA] (H-[dCha]-[Nva]-Arg-pNA) | 97,1 Nanomol | 574 | 0,35 Nanomol | 14,2 Nanomol
10 | NCCCC[C@H](NC(=O)[C@@H]1CCCN1C(=O)[C@H](N)CC1CCC(O)CC1)C(=O)Nc1ccc([N+](=O)[O-])cc1 (stereo partly drawn) [Beispiel 32, 2AcOH.H-D-CHT-Pro-Lys-pNA] | 0,8 Nanomol | 613 | 0,20 Nanomol | 3,8 Nanomol
11 | CCCC[C@H](NC(=O)[C@H](N)C1CCCCC1)C(=O)N[C@@H](CCCNC(=N)N)C(=O)Nc1ccc([N+](=O)[O-])cc1 [Beispiel 67, 2HBr.H-D-CHG-Nleu-Arg-pNA] (H-[dChg]-[Nle]-Arg-pNA) | 41,0 Nanomol | 739 | 0,53 Nanomol | 13,5 Nanomol
12 | N=C(N)NCCC[C@H](NC(=O)[C@H](CC1CCCCC1)NC(=O)[C@H](N)C1CCCCC1)C(=O)Nc1ccc([N+](=O)[O-])cc1 [Beispiel 1, H-D-CHG-CHA-Arg-pNA.2HBr] (H-[dChg]-[Cha]-Arg-pNA) | 8,27 Nanomol | 699 | 0,84 Nanomol | 12,9 Nanomol
13 | N=C(N)NCCC[C@H](NC(=O)[C@H](CC1CCCCC1)NC(=O)[C@H](N)Cc1ccccc1)C(=O)Nc1ccc([N+](=O)[O-])cc1 [Beispiel 39, 2HBr.H-D-Phe-CHA-Arg-pNA] (H-[dF]-[Cha]-Arg-pNA) | 3,9 Nanomol | 814 | 2,14 Nanomol | 28,5 Nanomol
14 | NCCCC[C@H](NC(=O)[C@H](CC1CCC(O)CC1)NC(=O)[C@H](N)c1ccccc1)C(=O)Nc1ccc([N+](=O)[O-])cc1 (stereo partly drawn) [Beispiel 35, 2AcOH.H-D-Ph'Gly-CHT-Lys-pNA] | 0,5 Nanomol | 894 | 0,10 Nanomol | 0,9 Nanomol
